# Values quoted from earlier work in patent publication US6419963B1, “Composition and method for the treatment of diaper rash using natural products” (priority 2001, dated 2002).
# Assays:
# ethanol-induced ulcers = details: rats
Molecule,solubility in water,ethanol-induced ulcers (ethanol-induced ulcers)
[O]=[Zn] [Zinc oxide],almost totally insoluble,–
CN/C(=N/CCSCc1nc[nH]c1C)NC#N [cimetidine],–,not affected
Zinc glycerolate,insoluble,–
